Reference: patent US3968101A, “8-Substituted cyclic nucleotides by free radical alkylation and acylation” (ICN Pharmaceuticals, Inc., priority 1974, dated 1976)
Where a name gives a salt, the structure may show the parent alone.

Experiments:
[1] = test system: cAMP-dependent protein kinase; assay: Activation of cAMP-dependent protein kinase isolated from beef brain; assay type: biochemical, bovine; settings: for Protein Kinase, Ka ' Bovine: ratio of Ka of cAMP to Ka of test compound, bovine brain cAMP-dependent kinase; for activation of the cAMP-dependent protein kinase (in words): bovine brain kinase
Text: The new 8-substituted purine cyclic nucleotides were examined for their ability to stimulate both a cAMP-dependent protein kinase isolated from beef brain and a cGMP-dependent protein kinase isolated from lobster tail (see Table II).
a Ka ' = The ratio of Ka of the dependent cyclic nucleotide (cAMP for bovine brain and cGMP for lobster tail) to the Ka of the test compound.

[2] = test system: cGMP-dependent protein kinase; assay: Activation of cGMP-dependent protein kinase isolated from lobster tail; assay type: biochemical; settings: for Protein Kinase, Ka ' Lobster: ratio of Ka of cGMP to Ka of test compound, lobster tail cGMP-dependent kinase; for ability to activate the cGMP-dependent protein kinase (in words): lobster tail kinase; for specificity between cGMP-dependent and cAMP-dependent protein kinase (in words): lobster tail cGMP-dependent versus bovine brain cAMP-dependent kinase
Text: The new 8-substituted purine cyclic nucleotides were examined for their ability to stimulate both a cAMP-dependent protein kinase isolated from beef brain and a cGMP-dependent protein kinase isolated from lobster tail (see Table II). […]. Acad. Sci. USA 64, 1349, Kuo et al, 1971, J. Biol. Chem. 246,7159) to be mediated by its activation of a protein kinase.
The Ka of cAMP for the cAMP-dependent protein kinase is about the same (see footnote a, Table II) as the Ka of cGMP for the cGMP-dependent protein kinase. Comparison of the Ka ' values (the ratio of Ka of the dependent cyclic nucleotide to the Ka of the test compound) is, therefore, an accurate guide to the type of kinase stimulation seen at a given cyclic nucleotide concentration.
a Ka ' = The ratio of Ka of the dependent cyclic nucleotide (cAMP for bovine brain and cGMP for lobster tail) to the Ka of the test compound. […]

[3] = test system: cyclic nucleotide phosphodiesterase; assay: Susceptibility to hydrolysis by rabbit kidney cyclic nucleotide phosphodiesterase; assay type: biochemical; settings: rabbit kidney enzyme preparation; times the rate of cAMP
Text: All compounds were examined for their susceptibility to hydrolysis by cyclic nucleotide phosphodiesterase. Both cGMP and cIMP were hydrolyzed at approximately one-half the rate of cAMP by a rabbit kidney enzyme preparation generally prepared in the manner described below for rabbit lung enzyme. The new 8-substituted derivatives were not substrates (rate of hydrolysis<0.05 that of the rate of cAMP hydrolysis) within the limits of detection of our assay, with the sole exception of 8-(1-hydroxybutyl)-cGMP (12), which was hydrolyzed at a rate 0.18 times the rate of hydrolysis of cAMP. This finding is in agreement with the general conclusion that 8-substitution of a purine 3',5'-cyclic ribonucleotide greatly reduces the ability of the resulting derivative to serve as a substrate for cyclic nucleotide phosphodiesterase.

[4] = target: cyclic nucleotide phosphodiesterase; assay: Inhibition of cAMP hydrolysis by rabbit lung cyclic nucleotide phosphodiesterase; assay type: biochemical; settings: rabbit lung enzyme; 50% inhibition of cleavage of cAMP, cAMP = 1.6 × 10^-7 M; read-out: Phosphodiesterase Inhibition, I50 Lung
Text: (§1) Homogenates of rabbit lung and beef heart are made in sucrose-Tris-magnesium buffer and are subjected to centrifugation at low speed to remove nuclei and cell debris. […] The precipitation which forms at 0-50% saturation is collected by centrifugation at 20,000 × g, dissolved in Tris-magnesium buffer, and dialyzed overnight against the same buffer.

[5] = target: cyclic nucleotide phosphodiesterase; assay: Inhibition of cAMP hydrolysis by beef heart cyclic nucleotide phosphodiesterase; assay type: biochemical; settings: beef heart enzyme; 50% inhibition of cleavage of cAMP, cAMP = 1.6 × 10^-7 M; read-out: Phosphodiesterase Inhibition, I50 Heart
Text: as §1

| SMILES | Protein Kinase, Ka ' Bovine [1] | Protein Kinase, Ka ' Lobster [2] | rate of hydrolysis relative to the rate of cAMP hydrolysis [3] | IC50 [4] [µM] | IC50 [5] [µM] | ability to activate the cGMP-dependent protein kinase (in words) [2] | specificity between cGMP-dependent and cAMP-dependent protein kinase (in words) [2] | activation of the cAMP-dependent protein kinase (in words) [1] |
| --- | --- | --- | --- | --- | --- | --- | --- | --- |
| Nc1nc2c(ncn2[C@@H]2O[C@@H]3COP(=O)(O)O[C@H]3[C@H]2O)c(=O)[nH]1 [Compound 1, guanosine 3',5'-cyclic phosphate, reference compound] | 0.023 | 1.0 | approximately one-half | – | – | – | – | – |
| Cc1nc2c(=O)[nH]c(N)nc2n1[C@@H]1O[C@@H]2COP(=O)(O)O[C@H]2[C@H]1O [Compound 2, 8-Methylguanosine 3',5'-Cyclic Phosphate] | 0.015 | 0.066 | – | 400 | 200 | – | – | – |
| CC(C)c1nc2c(=O)[nH]c(N)nc2n1[C@@H]1O[C@@H]2COP(=O)(O)O[C@H]2[C@H]1O [Compound 3, 8-Isopropylguanosine 3',5'-Cyclic Phosphate] | < 0.001 | 0.70 | – | 330 | 100 | – | – | – |
| Nc1nc2c(nc(Cc3ccccc3)n2[C@@H]2O[C@@H]3COP(=O)(O)O[C@H]3[C@H]2O)c(=O)[nH]1 [Compound 4, 8-Benzylguanosine 3',5'-Cyclic Phosphate] | < 0.001 | 0.10 | – | 130 | 140 | – | – | – |
| CC(C)(C)Cc1nc2c(=O)[nH]c(N)nc2n1[C@@H]1O[C@@H]2COP(=O)(O)O[C@H]2[C@H]1O [Compound 5, 8-Neopentylguanosine 3',5'-Cyclic Phosphate] | < 0.001 | 0.16 | – | 70 | 100 | – | – | – |
| CC(=O)c1nc2c(=O)[nH]c(N)nc2n1[C@@H]1O[C@@H]2COP(=O)(O)O[C@H]2[C@H]1O [Compound 6, 8-Acetylguanosine 3',5' -Cyclic Phosphate] | < 0.001 | 0.56 | – | 70 | 170 | – | – | – |
| CCCC(=O)c1nc2c(=O)[nH]c(N)nc2n1[C@@H]1O[C@@H]2COP(=O)(O)O[C@H]2[C@H]1O [Compound 7, 8-Butyrylguanosine 3',,5' -cyclic phosphate] | 0.064 | 0.20 | – | 70 | 90 | – | – | – |
| CC(C)C(=O)c1nc2c(=O)[nH]c(N)nc2n1[C@@H]1O[C@@H]2COP(=O)(O)O[C@H]2[C@H]1O [Compound 8, 8-Isobutyrylguanosine 3',5'-Cyclic Phosphate Ammonium Salt] | < 0.01 | 0.13 | – | – | 11 | – | – | – |
| Nc1nc2c(nc(C(=O)c3ccccc3)n2[C@@H]2O[C@@H]3COP(=O)(O)O[C@H]3[C@H]2O)c(=O)[nH]1 [Compound 9, 8-Benzoylguanosine 3',5'-cyclic phosphate] | < 0.005 | 0.68 | – | – | 50 | – | – | – |
| NC(=O)c1nc2c(=O)[nH]c(N)nc2n1[C@@H]1O[C@@H]2COP(=O)(O)O[C@H]2[C@H]1O [Compound 10, 8-Carbamoylguanosine 3',5'-Cyclic Phosphate] | < 0.001 | 1.5 | – | 400 | 100 | superior to cGMP | – | – |
| CC(O)c1nc2c(=O)[nH]c(N)nc2n1[C@@H]1O[C@@H]2COP(=O)(O)O[C@H]2[C@H]1O (some centres unmarked) [Compound 11, 8-(1-Hydroxyethyl)guanosine 3',5'-Cyclic Phosphate] | < 0.01 | 1.8 | – | 400 | 170 | superior to cGMP | – | – |
| CCCC(O)c1nc2c(=O)[nH]c(N)nc2n1[C@@H]1O[C@@H]2COP(=O)(O)O[C@H]2[C@H]1O (some centres unmarked) [Compound 12, 8-(1-Hydroxybutyl)guanosine 3',5'-Cyclic Phosphate] | < 0.001 | 0.62 | 0.18 | 133 | 29 | – | – | – |
| CC(C)C(O)c1nc2c(=O)[nH]c(N)nc2n1[C@@H]1O[C@@H]2COP(=O)(O)O[C@H]2[C@H]1O (some centres unmarked) [Compound 13, 8-(1-Hydroxy-2-methylpropyl)guanosine 3',5'-Cyclic Phosphate] | < 0.001 | 0.72 | – | 180 | 38 | – | – | – |
| Nc1nc2c(nc(C(O)c3ccccc3)n2[C@@H]2O[C@@H]3COP(=O)(O)O[C@H]3[C@H]2O)c(=O)[nH]1 (stereo partly drawn) [Compound 14, 8-(α-Hydroxybenzyl)guanosine 3',5'-Cyclic Phosphate] | < 0.005 | 2.3 | – | 140 | > 300 | superior to cGMP | – | – |
| CC(=NNC(N)=S)c1nc2c(=O)[nH]c(N)nc2n1[C@@H]1O[C@@H]2COP(=O)(O)O[C@H]2[C@H]1O [Compound 15, 8-Acetylguanosine 3',5'-Cyclic Phosphate Thiosemicarbazone] | < 0.005 | 0.052 | – | 26 | 50 | – | – | – |
| CC(=NNC(N)=O)c1nc2c(=O)[nH]c(N)nc2n1[C@@H]1O[C@@H]2COP(=O)(O)O[C@H]2[C@H]1O [Compound 16, 8-Acetylguanosine 3',5'-Cyclic Phosphate Semicarbazone] | < 0.005 | 0.031 | – | 200 | 125 | – | – | – |
| CC(=NNC(=O)Nc1ccccc1)c1nc2c(=O)[nH]c(N)nc2n1[C@@H]1O[C@@H]2COP(=O)(O)O[C@H]2[C@H]1O [Compound 17, 8-Acetylguanosine 3',5'-Cyclic Phosphate 4-Phenylsemicarbazone] | < 0.01 | 0.11 | – | 150 | 40 | – | – | – |
| CC(=NNc1ccccc1)c1nc2c(=O)[nH]c(N)nc2n1[C@@H]1O[C@@H]2COP(=O)(O)O[C@H]2[C@H]1O [Compound 18, 8-Acetylguanosine 3',5'-Cyclic Phosphate Phenylhydrazone] | < 0.005 | 0.44 | – | 2000 | 100 | – | – | – |
| O=c1[nH]cnc2c1ncn2[C@@H]1O[C@@H]2COP(=O)(O)O[C@H]2[C@H]1O [Compound 19, Inosine 3',5'-cyclic phosphate, reference compound] | 0.59 | 0.085 | approximately one-half | 100 | 3.9 | – | greater activation of the cAMP-dependent kinase | – |
| CC(=O)c1nc2c(=O)[nH]cnc2n1[C@@H]1O[C@@H]2COP(=O)(O)O[C@H]2[C@H]1O [Compound 20, 8-Acetylinosine 3',5'-Cyclic Phosphate] | 0.022 | 0.0041 | – | 2000 | 1000 | slight activation | slightly greater specificity for the cAMP-dependent enzyme | slight activation |
| O=C(c1ccccc1)c1nc2c(=O)[nH]cnc2n1[C@@H]1O[C@@H]2COP(=O)(O)O[C@H]2[C@H]1O [Compound 21, 8-Benzoylinosine 3',5'-Cyclic Phosphate] | 0.070 | 0.011 | – | 400 | 70 | slight activation | slightly greater specificity for the cAMP-dependent enzyme | slight activation |
| Cn1c(=O)c2[nH]cnc2n(C)c1=O [theophylline, reference compound] | – | – | – | 200 | 100 | – | – | – |
